Read-outs that look alike come from different tables or passages of the source.
Tests used:
[1] = system: Key Broadleaf Weed and Crop Species; experiment: Post-Emergent Test II: postemergent herbicidal activity, visual rating after 14 d (Table 7); assay type: in vivo; settings: post-emergence, 336 h; for pest or weed control at 35 g/ha: 35 g ai/ha; for pest or weed control at 70 g/ha: 70 g ai/ha; for pest or weed control at 140 g/ha: 140 g ai/ha
Method in brief: (§1)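 Greenhouse plants at first or second true leaf stage sprayed with compound in acetone/DMSO-based spray solution with crop oil concentrate and Triton X-155 at 187 L/ha, tested at highest rate and ½× to 1/16× dilutions; solvent blank controls. Injury rated visually 0–100% versus untreated plants after 14 d.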

[2] = system: Key Grass and Sedge Weeds as well as Grass Crops; experiment: Post-Emergent Test II: postemergent herbicidal activity, visual rating after 14 d (Table 8); assay type: in vivo; settings: post-emergence, 336 h; for pest or weed control at 35 g/ha: 35 g ai/ha; for pest or weed control at 70 g/ha: 70 g ai/ha; for pest or weed control at 140 g/ha: 140 g ai/ha
Method in brief: as §1

[3] = ABUTH: velvetleaf (Abutilon theophrasti), read-out: Visual Growth Reduction (%) 14 Days After Application ABUTH
[4] = AMARE: redroot pigweed (Amaranthus retroflexus), read-out: Visual Growth Reduction (%) 14 Days After Application AMARE
[5] = BRSNN: oilseed rape, canola (Brassica napus), read-out: Visual Growth Reduction (%) 14 Days After Application BRSNN
[6] = CHEAL: lambsquarters (Chenopodium album), read-out: Visual Growth Reduction (%) 14 Days After Application CHEAL
[7] = EPHHL: wild poinsettia (Euphorbia heterophylla), read-out: Visual Growth Reduction (%) 14 Days After Application EPHHL
[8] = HELAN: sunflower (Helianthus annuus), read-out: Visual Growth Reduction (%) 14 Days After Application HELAN
[9] = barnyardgrass (Echinochloa crus-galli), read-out: Visual Growth Reduction (%) 14 Days After Application, ECHCG
[10] = giant foxtail (Setaria faberi), read-out: Visual Growth Reduction (%) 14 Days After Application, SETFA
[11] = rice (Oryza sativa), read-out: Visual Growth Reduction (%) 14 Days After Application, ORYSA
[12] = wheat, spring (Triticum aestivum), read-out: Visual Growth Reduction (%) 14 Days After Application, TRZAS
[13] = yellow nutsedge (Cyperus esculentus), read-out: Visual Growth Reduction (%) 14 Days After Application, CYPES
[14] = maize, corn (Zea mays), read-out: Visual Growth Reduction (%) 14 Days After Application, ZEAMX

Structure (SMILES): COC(=O)c1nc(-c2ccc(Cl)c3c2OC(F)(F)O3)c(C)c(N)c1Cl [Compound 94]
- pest or weed control at 35 g/ha [1, 3]: 30 to 44%
- pest or weed control at 70 g/ha [1, 3]: 45 to 59%
- pest or weed control at 140 g/ha [1, 3]: 45 to 59%
- pest or weed control at 35 g/ha [1, 4]: 95 to 100%
- pest or weed control at 70 g/ha [1, 4]: 95 to 100%
- pest or weed control at 140 g/ha [1, 4]: 95 to 100%
- pest or weed control at 35 g/ha [1, 5]: 0 to 29%
- pest or weed control at 70 g/ha [1, 5]: 0 to 29%
- pest or weed control at 140 g/ha [1, 5]: 0 to 29%
- pest or weed control at 35 g/ha [1, 6]: 75 to 84%
- pest or weed control at 70 g/ha [1, 6]: 85 to 94%
- pest or weed control at 140 g/ha [1, 6]: 85 to 94%
- pest or weed control at 35 g/ha [1, 7]: 0 to 29%
- pest or weed control at 70 g/ha [1, 7]: 0 to 29%
- pest or weed control at 140 g/ha [1, 7]: 0 to 29%
- pest or weed control at 35 g/ha [1, 8]: 60 to 74%
- pest or weed control at 70 g/ha [1, 8]: 85 to 94%
- pest or weed control at 140 g/ha [1, 8]: 95 to 100%
- pest or weed control at 35 g/ha [2, 9]: 0 to 29%
- pest or weed control at 70 g/ha [2, 9]: 0 to 29%
- pest or weed control at 140 g/ha [2, 9]: 0 to 29%
- pest or weed control at 35 g/ha [2, 10]: 0 to 29%
- pest or weed control at 70 g/ha [2, 10]: 0 to 29%
- pest or weed control at 140 g/ha [2, 10]: 0 to 29%
- pest or weed control at 35 g/ha [2, 11]: 0 to 29%
- pest or weed control at 70 g/ha [2, 11]: 0 to 29%
- pest or weed control at 140 g/ha [2, 11]: 0 to 29%
- pest or weed control at 35 g/ha [2, 12]: 0 to 29%
- pest or weed control at 70 g/ha [2, 12]: 0 to 29%
- pest or weed control at 140 g/ha [2, 12]: 0 to 29%
- pest or weed control at 35 g/ha [2, 13]: 0 to 29%
- pest or weed control at 70 g/ha [2, 13]: 0 to 29%
- pest or weed control at 140 g/ha [2, 13]: 0 to 29%

Structure (SMILES): COC(=O)c1nc(-c2ccc(F)c3c2OCO3)nc(N)c1OC [Compound 97]
- pest or weed control at 35 g/ha [1, 3]: 0 to 29%
- pest or weed control at 70 g/ha [1, 3]: 0 to 29%
- pest or weed control at 140 g/ha [1, 3]: 0 to 29%
- pest or weed control at 35 g/ha [1, 4]: 0 to 29%
- pest or weed control at 70 g/ha [1, 4]: 0 to 29%
- pest or weed control at 140 g/ha [1, 4]: 0 to 29%
- pest or weed control at 35 g/ha [1, 5]: 0 to 29%
- pest or weed control at 70 g/ha [1, 5]: 0 to 29%
- pest or weed control at 140 g/ha [1, 5]: 0 to 29%
- pest or weed control at 35 g/ha [1, 6]: 60 to 74%
- pest or weed control at 70 g/ha [1, 6]: 85 to 94%
- pest or weed control at 140 g/ha [1, 6]: 60 to 74%
- pest or weed control at 35 g/ha [1, 7]: 0 to 29%
- pest or weed control at 70 g/ha [1, 7]: 0 to 29%
- pest or weed control at 140 g/ha [1, 7]: 0 to 29%
- pest or weed control at 35 g/ha [1, 8]: 60 to 74%
- pest or weed control at 70 g/ha [1, 8]: 75 to 84%
- pest or weed control at 140 g/ha [1, 8]: 85 to 94%
- pest or weed control at 35 g/ha [2, 9]: 0 to 29%
- pest or weed control at 70 g/ha [2, 9]: 0 to 29%
- pest or weed control at 140 g/ha [2, 9]: 0 to 29%
- pest or weed control at 35 g/ha [2, 10]: 0 to 29%
- pest or weed control at 70 g/ha [2, 10]: 0 to 29%
- pest or weed control at 140 g/ha [2, 10]: 0 to 29%
- pest or weed control at 35 g/ha [2, 14]: 0 to 29%
- pest or weed control at 70 g/ha [2, 14]: 0 to 29%
- pest or weed control at 140 g/ha [2, 14]: 0 to 29%
- pest or weed control at 35 g/ha [2, 11]: 0 to 29%
- pest or weed control at 70 g/ha [2, 11]: 0 to 29%
- pest or weed control at 140 g/ha [2, 11]: 0 to 29%
- pest or weed control at 35 g/ha [2, 12]: 0 to 29%
- pest or weed control at 70 g/ha [2, 12]: 0 to 29%
- pest or weed control at 140 g/ha [2, 12]: 0 to 29%
- pest or weed control at 35 g/ha [2, 13]: 0 to 29%
- pest or weed control at 70 g/ha [2, 13]: 0 to 29%
- pest or weed control at 140 g/ha [2, 13]: 0 to 29%

Structure (SMILES): Nc1c(F)c(-c2ccc3c(c2)OCC3)nc(C(=O)O)c1Cl [Compound 101]
- pest or weed control at 35 g/ha [1, 3]: 75 to 84%
- pest or weed control at 70 g/ha [1, 3]: 85 to 94%
- pest or weed control at 140 g/ha [1, 3]: 95 to 100%
- pest or weed control at 35 g/ha [1, 4]: 95 to 100%
- pest or weed control at 70 g/ha [1, 4]: 95 to 100%
- pest or weed control at 140 g/ha [1, 4]: 95 to 100%
- pest or weed control at 35 g/ha [1, 5]: 0 to 29%
- pest or weed control at 70 g/ha [1, 5]: 85 to 94%
- pest or weed control at 140 g/ha [1, 5]: 95 to 100%
- pest or weed control at 35 g/ha [1, 6]: 95 to 100%
- pest or weed control at 70 g/ha [1, 6]: 95 to 100%
- pest or weed control at 140 g/ha [1, 6]: 95 to 100%
- pest or weed control at 35 g/ha [1, 7]: 0 to 29%
- pest or weed control at 70 g/ha [1, 7]: 0 to 29%
- pest or weed control at 140 g/ha [1, 7]: 30 to 44%
- pest or weed control at 35 g/ha [1, 8]: 85 to 94%
- pest or weed control at 70 g/ha [1, 8]: 85 to 94%
- pest or weed control at 140 g/ha [1, 8]: 85 to 94%
- pest or weed control at 35 g/ha [2, 9]: 60 to 74%
- pest or weed control at 70 g/ha [2, 9]: 60 to 74%
- pest or weed control at 140 g/ha [2, 9]: 75 to 84%
- pest or weed control at 35 g/ha [2, 14]: 0 to 29%
- pest or weed control at 70 g/ha [2, 14]: 0 to 29%
- pest or weed control at 140 g/ha [2, 14]: 0 to 29%
- pest or weed control at 35 g/ha [2, 11]: 0 to 29%
- pest or weed control at 70 g/ha [2, 11]: 0 to 29%
- pest or weed control at 140 g/ha [2, 11]: 0 to 29%
- pest or weed control at 35 g/ha [2, 12]: 0 to 29%
- pest or weed control at 70 g/ha [2, 12]: 0 to 29%
- pest or weed control at 140 g/ha [2, 12]: 0 to 29%
- pest or weed control at 35 g/ha [2, 13]: 0 to 29%
- pest or weed control at 70 g/ha [2, 13]: 0 to 29%
- pest or weed control at 140 g/ha [2, 13]: 0 to 29%

Structure (SMILES): Nc1cc(-c2ccc(F)c3c2OC(F)(F)O3)nc(C(=O)O)c1Cl [Compound 89]
- pest or weed control at 35 g/ha [1, 3]: 0 to 29%
- pest or weed control at 70 g/ha [1, 3]: 75 to 84%
- pest or weed control at 140 g/ha [1, 3]: 75 to 84%
- pest or weed control at 35 g/ha [1, 4]: 95 to 100%
- pest or weed control at 70 g/ha [1, 4]: 95 to 100%
- pest or weed control at 140 g/ha [1, 4]: 95 to 100%
- pest or weed control at 35 g/ha [1, 5]: 85 to 94%
- pest or weed control at 70 g/ha [1, 5]: 85 to 94%
- pest or weed control at 140 g/ha [1, 5]: 95 to 100%
- pest or weed control at 35 g/ha [1, 6]: 95 to 100%
- pest or weed control at 70 g/ha [1, 6]: 95 to 100%
- pest or weed control at 140 g/ha [1, 6]: 95 to 100%
- pest or weed control at 35 g/ha [1, 7]: 0 to 29%
- pest or weed control at 70 g/ha [1, 7]: 0 to 29%
- pest or weed control at 140 g/ha [1, 7]: 0 to 29%
- pest or weed control at 35 g/ha [1, 8]: 60 to 74%
- pest or weed control at 70 g/ha [1, 8]: 60 to 74%
- pest or weed control at 140 g/ha [1, 8]: 75 to 84%
- pest or weed control at 35 g/ha [2, 9]: 0 to 29%
- pest or weed control at 70 g/ha [2, 9]: 0 to 29%
- pest or weed control at 140 g/ha [2, 9]: 0 to 29%
- pest or weed control at 35 g/ha [2, 10]: 0 to 29%
- pest or weed control at 70 g/ha [2, 10]: 0 to 29%
- pest or weed control at 140 g/ha [2, 10]: 0 to 29%
- pest or weed control at 35 g/ha [2, 14]: 0 to 29%
- pest or weed control at 70 g/ha [2, 14]: 0 to 29%
- pest or weed control at 140 g/ha [2, 14]: 0 to 29%
- pest or weed control at 35 g/ha [2, 11]: 0 to 29%
- pest or weed control at 70 g/ha [2, 11]: 0 to 29%
- pest or weed control at 140 g/ha [2, 11]: 0 to 29%
- pest or weed control at 35 g/ha [2, 12]: 0 to 29%
- pest or weed control at 70 g/ha [2, 12]: 0 to 29%
- pest or weed control at 140 g/ha [2, 12]: 0 to 29%
- pest or weed control at 35 g/ha [2, 13]: 0 to 29%
- pest or weed control at 70 g/ha [2, 13]: 0 to 29%
- pest or weed control at 140 g/ha [2, 13]: 0 to 29%

Reference: patent US9149038B2, “4-amino-6-(heterocyclic)picolinates and 6-amino-2-(heterocyclic)pyrimidine-4-carboxylates and their use as herbicides” (Dow AgroSciences LLC, priority 2013, dated 2015)
